Measurements published in patent publication US20130236904A1, “METHOD FOR SCREENING FOR MATERIALS FOR PROMOTING THE DIFFERENTIATION OF SKIN CELLS” (AMOREPACIFIC CORPORATION, priority 2010, published 2013).

System: DUOX 1 gene
Test: DUOX 1 gene expression by calcium concentration (Q-RT-PCR)
Type: cell-based
Settings: normal human epidermal keratinocytes, 1.2 mM calcium (high calcium group) vs 120 μM (control), 24 hours; FIG. 1
Protocol: Normal human epidermal keratinocytes (human epidermal neonatal keratinocyte cells) are purchased from Lonza, Inc. (Walkersville, Md., USA) and subcultured, and then incubated in a CO2 incubator under a condition of 37° C. and 5% CO2. Cell culture is prepared according to the instructions of Lonza, Inc. (Walkersville, Md., USA). KGM-2 bullet kit [bovine pituitary extract (BPE), 2 ml), human epidermal growth factor (hEGF, 0.5 ml), insulin (0.5 ml), hydrocortisone (0.5 ml), transferrin (0.5 ml), epinephrine (0.5 ml), gentamycin sulfate+amphofericin B (GA-1000, 0.5 ml)] are added to KBM-2 (Clonetics CC-3103) medium (500 ml).
120 μM and 1.2 mM Calcium are added to the culture medium of human epidermal keratinocytes, respectively, and the cells are incubated for 24 hours. Each of them is used as a low calcium group (control group) and a high calcium group (test group). […] The isolated RNA is purified once more using an RNA kit (Qiagen RNeasy kit, Qiagen, Valencia, Calif.) and RNA quality is verified using Agilent 2100 BioAnalyzer (Agilent Technologies, Santa Clara, Calif., USA). cDNA is synthesized from the isolated RNA using a reverse transcription kit (Superscript Reverse Transcriptase (RT) II kit, Invitrogen, Carlsbad, Calif.), and expression of various NOX genes is quantitatively analyzed by means of real time-reverse transcription polymerase chain reaction (Q-RT-PCR). […]

[Ca+2] [calcium, Calcium]
expression of DUOX 1 gene: more remarkably increased
